Experiment: xn = mol fraction of the nth substance listed

CC[n+]1ccn(C)c1.O=S(=O)([O-])C(F)(F)F + CC1COC(=O)O1
101 kPa
Settings | viscosity [mPa·s]
288.15 K, x1 = 0.3005 | 10.78
288.15 K, x1 = 0.3998 | 14.62
288.15 K, x1 = 0.5001 | 18.7
293.15 K, x1 = 0.0999 | 5.28
293.15 K, x1 = 0.8004 | 32.5
298.15 K, x1 = 0.8004 | 27.2
298.15 K, x1 = 0.8998 | 32.5
298.15 K, x1 = 1 | 40.4
303.15 K, x1 = 0.0999 | 3.91
303.15 K, x1 = 0.3998 | 8.9
303.15 K, x1 = 0.6987 | 18.4
303.15 K, x1 = 1 | 34
308.15 K, x1 = 0.5001 | 9.9
313.15 K, x1 = 0.8998 | 20.4
313.15 K, x1 = 1 | 24.9
318.15 K, x1 = 0.1999 | 3.52
318.15 K, x1 = 0.3005 | 4.44
318.15 K, x1 = 0.3998 | 5.86
318.15 K, x1 = 0.5001 | 7.69
318.15 K, x1 = 0.8998 | 17.7
323.15 K, x1 = 0.6987 | 10.72
323.15 K, x1 = 0.8998 | 15.47
328.15 K, x1 = 0.1999 | 2.81
328.15 K, x1 = 0.3005 | 3.48
328.15 K, x1 = 0.3998 | 4.58
328.15 K, x1 = 0.5001 | 6.16
328.15 K, x1 = 0.601 | 7.77
333.15 K, x1 = 0.3005 | 3.14
333.15 K, x1 = 0.6987 | 8.51
333.15 K, x1 = 0.8004 | 10.43
338.15 K, x1 = 0.601 | 6.33
338.15 K, x1 = 0.8004 | 9.21
343.15 K, x1 = 0.0999 | 1.74
343.15 K, x1 = 0.3998 | 3.35
353.15 K, x1 = 0.3005 | 2.29
353.15 K, x1 = 0.8998 | 8.38
353.15 K, x1 = 1 | 9.49

CC[N+](CC)(CC)CC.O=S(=O)([O-])C(F)(F)F + CC#N
100 kPa
Settings | electrical conductivity [S/m]
293.15 K, x1 = 0.02 | 2.56
293.15 K, x1 = 0.05 | 4.03
298.15 K, x1 = 0.0997 | 4.87
308.15 K, x1 = 0.1498 | 4.75
318.15 K, x1 = 0.05 | 4.94
318.15 K, x1 = 0.2995 | 3.89
323.15 K, x1 = 0.2995 | 4.16
333.15 K, x1 = 0.2 | 5.43
333.15 K, x1 = 0.25 | 4.96
333.15 K, x1 = 0.2995 | 4.73
348.15 K, x1 = 0.02 | 3.67
348.15 K, x1 = 0.08 | 6.89
348.15 K, x1 = 0.1498 | 6.97

CC[n+]1ccn(C)c1.O=S(=O)([O-])C(F)(F)F + CC#N
viscosity [mPa·s], 100 kPa
Settings | 298.15 K | 303.15 K | 308.15 K | 313.15 K | 318.15 K | 323.15 K
x1 = 0.3948 | 4.5 | 4.1 | 3.8 | 3.5 | – | –
x1 = 0.498 | 7.4 | 6.6 | 6 | 5.4 | 4.9 | 4.4
x1 = 0.595 | – | 9.5 | 8.4 | 7.5 | 6.7 | 6
x1 = 0.6936 | – | – | – | – | 9.5 | 8.3
x1 = 0.9005 | 34 | – | – | – | – | –
x1 = 1 | 46 | 38 | – | – | – | –

CCc1n(S(=O)(=O)O)cc[n+]1S(=O)(=O)O.O=C([O-])C(F)(F)F + CC#N
101 kPa
Settings | electrical conductivity [S/m]
278.15 K, x1 = 0.02551 | 1.22
283.15 K, x1 = 0.02551 | 1.21
288.15 K, x1 = 0.02551 | 1.2
293.15 K, x1 = 0.02551 | 1.11
298.15 K, x1 = 0.0052 | 0.323
298.15 K, x1 = 0.0104 | 0.517
298.15 K, x1 = 0.0155 | 0.736
298.15 K, x1 = 0.0205 | 0.989
298.15 K, x1 = 0.0255 | 1.11
298.15 K, x1 = 0.02551 | 1.11
303.15 K, x1 = 0.02551 | 0.823
308.15 K, x1 = 0.02551 | 0.824
313.15 K, x1 = 0.02551 | 0.816
318.15 K, x1 = 0.02551 | 0.767
323.15 K, x1 = 0.02551 | 0.755
328.15 K, x1 = 0.02551 | 0.689
333.15 K, x1 = 0.02551 | 0.652

C[n+]1ccn(CCCC#N)c1.F[B-](F)(F)F + CC#N
100 kPa
Settings | electrical conductivity [S/m]
288.15 K, x1 = 0.5996 | 0.36
293.15 K, x1 = 0.4999 | 0.69
293.15 K, x1 = 0.5996 | 0.47
303.15 K, x1 = 0.4999 | 1
303.15 K, x1 = 0.8885 | 0.31
308.15 K, x1 = 0.7001 | 0.72
323.15 K, x1 = 0.8024 | 0.87

Cc1n(S(=O)(=O)O)cc[n+]1S(=O)(=O)O.O=C([O-])C(F)(F)F + CC#N
101 kPa
Settings | electrical conductivity [S/m]
278.15 K, x1 = 0.02551 | 1.39
283.15 K, x1 = 0.02551 | 1.36
288.15 K, x1 = 0.02551 | 1.3
293.15 K, x1 = 0.02551 | 1.29
298.15 K, x1 = 0.0052 | 0.351
298.15 K, x1 = 0.0104 | 0.528
298.15 K, x1 = 0.0155 | 0.698
298.15 K, x1 = 0.0205 | 1.04
298.15 K, x1 = 0.0255 | 1.26
298.15 K, x1 = 0.02551 | 1.26
303.15 K, x1 = 0.02551 | 1.2
308.15 K, x1 = 0.02551 | 1.15
313.15 K, x1 = 0.02551 | 1.1
318.15 K, x1 = 0.02551 | 1.09
323.15 K, x1 = 0.02551 | 1.08
328.15 K, x1 = 0.02551 | 0.706
333.15 K, x1 = 0.02551 | 0.616

O=C([O-])C(F)(F)F.O=S(=O)(O)n1cc[n+](S(=O)(=O)O)c1 + CC#N
101 kPa
Settings | electrical conductivity [S/m]
278.15 K, x1 = 0.02551 | 1.83
283.15 K, x1 = 0.02551 | 1.78
288.15 K, x1 = 0.02551 | 1.62
293.15 K, x1 = 0.02551 | 1.59
298.15 K, x1 = 0.0052 | 0.305
298.15 K, x1 = 0.0104 | 0.52
298.15 K, x1 = 0.0155 | 0.949
298.15 K, x1 = 0.0205 | 1.15
298.15 K, x1 = 0.0255 | 1.54
298.15 K, x1 = 0.02551 | 1.54
298.15 K, x1 = 0.05 | 2.02
303.15 K, x1 = 0.02551 | 1.27
308.15 K, x1 = 0.02551 | 1.25
313.15 K, x1 = 0.02551 | 1.25
318.15 K, x1 = 0.02551 | 1.25
323.15 K, x1 = 0.02551 | 0.803
328.15 K, x1 = 0.02551 | 0.486
333.15 K, x1 = 0.02551 | 0.401

O=c1cc[nH]c(=O)[nH]1 + CC(=O)[O-].CC[n+]1ccn(C)c1
Settings | viscosity [mPa·s]
298.15 K, 100 kPa, x1 = 0.233 | 773
